Here are results for 21 compounds from US20090326001A1, “THIENOPYRIDINE DERIVATIVES AS MODULATORS OF METABOTROPIC GLUTAMATE RECEPTORS” (priority 2005, published 2009).

In one experiment the target is T1, rat mGluR1 (Rattus norvegicus, UniProt P23385).
T1 construct: rat cerebellar membrane preparation was used; from tissue; host or cells: rat cerebellum (membrane preparation)
Description: mGluR1 receptor binding test ([3H]R214127 displacement, rat cerebellar membrane). The note with it: radioligand [3H]R214127 3 nM, read-out: mGlu1 Ki. As to the method: MGluR1 receptor binding testes were performed according to modified method of Lavreysen et al. (Mol. Pharm., 2003, 63, 1082). Based on the high homology between the human and rat mGluR1 receptors, rat cerebellar membrane preparation was used to determine the binding characteristics of reference compounds and novel compounds to the rat mGluR1. As radioligand [3H]R214127 (3 nM) was used and the nonspecific binding was determined in the presence of 1 μM of R214127.
IC-50 values were determined from displacement curves by nonlinear regression analysis and were converted by equation method of Cheng and Prusoff (Biochem. Pharmacol., 1973, 22, 3099) to Ki values.

For the next experiment, the target named is T2, mGluR5 (UniProt P31424).
T2 construct: Rat cerebro-cortical membrane preparation
Briefly: mGluR5 receptor binding test ([3H]-M-MPEP displacement). The conditions noted are these: radioligand [3H]-M-MPEP 2 nM; table does not say rat cerebro-cortical membrane or human mGluR5a A18 cells; read-out: mGlu5 Ki. The method, then:
Rat cerebro-cortical membrane preparation was used to determine the binding characteristics of reference compounds and novel compounds to the rat mGluR5. The A18 cell line expressing hmGluR5a (purchased from Euroscreen) was used to determine binding characteristics of the chemical compounds to the human mGluR5a receptor. As radioligand [3H]-M-MPEP (2 nM) was used. The nonspecific binding was determined in the presence of 10 μM M-MPEP.

pKi: −log10 of the molar value.

T1 sequence (P23385 19-1199): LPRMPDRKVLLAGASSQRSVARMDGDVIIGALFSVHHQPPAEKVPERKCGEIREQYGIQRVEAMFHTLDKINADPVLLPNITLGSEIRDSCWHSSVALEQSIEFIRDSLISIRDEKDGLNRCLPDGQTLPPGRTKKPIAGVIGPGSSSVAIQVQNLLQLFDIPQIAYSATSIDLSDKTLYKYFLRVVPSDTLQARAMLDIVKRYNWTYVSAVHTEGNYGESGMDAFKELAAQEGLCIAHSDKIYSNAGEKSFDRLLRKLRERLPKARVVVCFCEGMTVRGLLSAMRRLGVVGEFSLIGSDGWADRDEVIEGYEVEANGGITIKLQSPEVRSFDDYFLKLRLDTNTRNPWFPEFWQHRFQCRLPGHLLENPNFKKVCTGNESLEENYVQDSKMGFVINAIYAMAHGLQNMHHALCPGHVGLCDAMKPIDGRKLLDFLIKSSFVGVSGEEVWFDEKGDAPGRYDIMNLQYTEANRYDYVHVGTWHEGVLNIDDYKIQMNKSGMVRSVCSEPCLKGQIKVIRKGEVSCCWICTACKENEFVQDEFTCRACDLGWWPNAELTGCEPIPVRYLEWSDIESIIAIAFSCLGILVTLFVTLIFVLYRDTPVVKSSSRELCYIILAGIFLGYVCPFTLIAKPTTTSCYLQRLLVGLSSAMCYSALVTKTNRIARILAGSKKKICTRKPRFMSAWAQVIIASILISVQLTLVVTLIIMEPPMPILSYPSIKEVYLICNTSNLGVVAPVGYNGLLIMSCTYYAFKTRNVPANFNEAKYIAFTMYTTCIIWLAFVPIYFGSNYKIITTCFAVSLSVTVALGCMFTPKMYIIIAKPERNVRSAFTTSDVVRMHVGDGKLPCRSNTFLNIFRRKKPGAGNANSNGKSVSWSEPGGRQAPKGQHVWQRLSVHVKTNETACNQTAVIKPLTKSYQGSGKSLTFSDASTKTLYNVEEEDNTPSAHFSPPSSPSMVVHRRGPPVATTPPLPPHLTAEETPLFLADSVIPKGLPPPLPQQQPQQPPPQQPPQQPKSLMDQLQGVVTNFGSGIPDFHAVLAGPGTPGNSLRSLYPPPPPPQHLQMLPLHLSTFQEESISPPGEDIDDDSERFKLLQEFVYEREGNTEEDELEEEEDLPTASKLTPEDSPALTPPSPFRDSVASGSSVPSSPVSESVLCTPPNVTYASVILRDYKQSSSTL

For orientation: pKi means the Ki on a negative log10 scale, so that one unit is a factor of ten. As for `CN(Cc1cccs1)C(=O)c1sc2ncccc2c1-c1ccc(Cl)cc1` [Compound 30], the pKi on rat mGluR1 and at mGluR5 was less than 5.82 in each case.

For the compound `O=C(CCc1ccccn1)c1sc2ncccc2c1-c1ccc(F)cc1` [Compound 17], the negative-log Ki (pKi) on rat mGluR1 is greater than 6.30; at mGluR5 it was 5.82 to 6.30.

On to `CCOC(=O)CC(=O)c1sc2ncccc2c1-c1ccccc1` [Compound 25, 3-oxo-3-(3-phenyl-thieno[2,3-b]pyridin-2-yl)-propionic acid ethyl ester], for which the pKi on rat mGluR1 and at mGluR5 was greater than 6.30 each time.

With `O=C(CCc1ccc(F)cc1)c1sc2ncccc2c1-c1ccc(F)cc1` [Compound 5, 3-(4-Fluoro-phenyl)-1-[3-(4-fluoro-phenyl)-thieno[2,3-b]pyridin-2-yl]-propan-1-one], the negative-log Ki (pKi) at rat mGluR1 and on mGluR5 was greater than 6.30 in each case.

With `O=C(NCc1ccc(F)cc1)c1sc2ncccc2c1-c1ccc(F)cc1` [Compound 27, 3-(4-Fluoro-phenyl)-thieno[2,3-b]pyridin-2-carboxylic acid (4-fluoro-benzyl)-amide], the pKi on rat mGluR1 and at mGluR5 was greater than 6.30 throughout.

As for `O=C(CCc1ccoc1)c1sc2ncccc2c1-c1ccc(F)cc1` [Compound 16], the negative logarithm of the Ki (pKi) at rat mGluR1 and on mGluR5 was 5.82 to 6.30 throughout.

For the compound `CCOC(=O)CC(=O)c1sc2ncccc2c1-c1ccc(C)cc1` [Compound 22, 3-oxo-3-(3-p-tolyl-thieno[2,3-b]pyridin-2-yl)-propionic acid ethyl ester], the negative logarithm of the Ki (pKi) on rat mGluR1 and on mGluR5 was greater than 6.30 each time.

For “3-(4-Fluoro-phenyl)-1-[3-(4-fluoro-phenyl)-thieno[2,3-b]pyridin-2-yl]-propenone [Compound 10]”, the pKi at rat mGluR1 is greater than 6.30; at mGluR5 it was less than 5.82.

As to `O=C(Cc1ccc(F)c(F)c1)c1sc2ncccc2c1-c1ccc(Cl)cc1` [Compound 2, 1-[3-(4-chloro-phenyl)-thieno[2,3-b]pyridin-2-yl]-2-(3,4-difluoro-phenyl)-ethanone], the pKi on rat mGluR1 and at mGluR5 was greater than 6.30 throughout.

`O=C(CCc1ccsc1)c1sc2ncccc2c1-c1ccc(F)cc1` [Compound 19, 1-[3-(4-fluoro-phenyl)-thieno[2,3-b]pyridin-2-yl]-3-thiophen-3-yl-propan-1-one]: the pKi on rat mGluR1 and on mGluR5 was greater than 6.30 each time.

For the compound `O=C(CCc1cccc(F)c1)c1sc2ncccc2c1-c1ccc(F)cc1` [Compound 4, 3-(3-fluoro-phenyl)-1-[3-(4-fluoro-phenyl)-thieno[2,3-b]pyridin-2-yl]-propan-1-one], the pKi at rat mGluR1 and at mGluR5 was greater than 6.30 throughout.

As for `O=C(Nc1ccc(F)cc1)c1sc2ncccc2c1-c1ccc(F)cc1` [Compound 37], the pKi on rat mGluR1 and at mGluR5 was less than 5.82 in each case.

As to `CN(Cc1ccc(F)cc1)C(=O)c1sc2ncccc2c1-c1ccc(Cl)cc1` [Compound 34], the values for the negative logarithm of the Ki (pKi) on rat mGluR1 and on mGluR5 were 5.82 to 6.30 and less than 5.82, respectively.

`O=C(Cc1ccc(F)cc1)c1sc2ncccc2c1-c1ccc(Cl)cc1` [Compound 1, 1-[3-(4-chloro-phenyl)-thieno[2,3-b]pyridin-2-yl]-2-(4-fluoro-phenyl)-ethanone]: the negative-log Ki (pKi) at rat mGluR1 and at mGluR5 was greater than 6.30 throughout.

As to `O=C(OCc1ccc(F)cc1)c1sc2ncccc2c1-c1ccc(Cl)cc1` [Compound 20, 3-(4-chloro-phenyl)-thieno[2,3-b]pyridine-2-carboxylic acid 4-fluoro-benzyl ester], the negative-log Ki (pKi) on rat mGluR1 and at mGluR5 was greater than 6.30 in each case.

Consider `CCOC(=O)CC(=O)c1sc2ncccc2c1-c1ccc(F)cc1` [Compound 24, 3-[3-(4-fluoro-phenyl)-thieno[2,3-b]pyridin-2-yl]-3-oxo-propionic acid ethyl ester], for which the negative logarithm of the Ki (pKi) at rat mGluR1 and at mGluR5 was greater than 6.30 throughout.

As for `O=C(Nc1nccs1)c1sc2ncccc2c1-c1ccc(Cl)cc1` [Compound 35], the negative-log Ki (pKi) at rat mGluR1 and on mGluR5 was less than 5.82 throughout.

`CCOC(=O)CC(=O)c1sc2ncccc2c1-c1ccc(Cl)cc1` [Compound 23, 3-[3-(4-Chloro-phenyl)-thieno[2,3-b]pyridin-2-yl]-3-oxo-propionic acid ethyl ester]: the negative-log Ki (pKi) on rat mGluR1 and at mGluR5 was greater than 6.30 in each case.

Take `O=C(CCc1cccs1)c1sc2ncccc2c1-c1ccc(F)cc1` [Compound 18]: the pKi at rat mGluR1 is greater than 6.30; at mGluR5 it was 5.82 to 6.30.

As for `O=C(Cc1ccc(F)cc1)c1sc2ncccc2c1-c1ccc(F)cc1` [Compound 3, 2-(4-fluoro-phenyl)-1-[3-(4-fluoro-phenyl)-thieno[2,3-b]pyridin-2-yl]-ethanone], the negative-log Ki (pKi) at rat mGluR1 and at mGluR5 was greater than 6.30 in each case.

On to `CCOC(=O)CC(=O)c1sc2nc(C)ccc2c1-c1ccc(Cl)cc1` [Compound 26, 3-[3-(4-chloro-phenyl)-6-methyl-thieno[2,3-b]pyridin-2-yl]-3-oxo-propionic acid ethyl ester], for which the pKi at rat mGluR1 and at mGluR5 was greater than 6.30 each time.
